Where a SMILES comes first, the peptide text is derived from it. Where no end group is shown, it is not given here. [ ]: non-standard residue; d: D form. Aib = CC(C)(N)C(=O)O
System: Mouse monocyte/macrophage cell line, RAW 264.7
Assay: Cholesterol efflux assay (3H-cholesterol, macrophage cell line)
Type: cell-based
Details: RAW 264.7, 4 hrs incubation, 0.1% human serum albumin, ABCA1-mediated efflux

Row | Compound | 4 h Cholesterol Efflux Emax [%]
1 | CC[C@H](C)[C@H](NC(=O)[C@H](Cc1ccccc1)NC(=O)[C@H](CCC(=O)O)NC(=O)[C@H](CCCNC(=N)N)NC(=O)[C@@H](NC(=O)[C@H](C)NC(=O)[C@H](CCC(=O)O)NC(=O)[C@H](CCC(=O)O)NC(=O)[C@H](CCC(=O)O)NC(=O)[C@H](CCSC)NC(=O)[C@H](CCC(N)=O)NC(=O)[C@H](CCCCN)NC(=O)[C@H](CO)NC(=O)[C@H](CC(C)C)NC(=O)[C@H](CC(=O)O)NC(=O)[C@H](CO)NC(=O)[C@@H](NC(=O)[C@H](Cc1ccccc1)NC(=O)[C@@H](NC(=O)CNC(=O)[C@H](CCC(=O)O)NC(=O)C(C)(C)NC(=O)[C@@H](N)Cc1c[nH]cn1)[C@@H](C)O)[C@@H](C)O)C(C)C)C(=O)N[C@@H](CCC(=O)O)C(=O)N[C@@H](Cc1c[nH]c2ccccc12)C(=O)N[C@@H](CC(C)C)C(=O)N[C@@H](CCCCN)C(=O)N[C@@H](CC(N)=O)C(=O)N[C@@H](CCCCN)C(=O)NC(C)(C)C(=O)N[C@@H](CC(C)C)C(=O)N[C@@H](CCC(=O)O)C(=O)N[C@@H](Cc1ccccc1)C(=O)N[C@@H](CC(C)C)C(N)=O [Compound 42, [Aib2,Glu21, Lvs29,Aib30,Leu31,Glu32,Phe33,Leu34]-Exendin-4-(1-34)-peptide amide] (H-H[Aib]EGTFTSDLSKQMEEEAVREFIEWLKNK[Aib]LEFL-NH2; N-terminus assumed) | 105
2 | CC[C@H](C)[C@H](NC(=O)[C@H](Cc1ccccc1)NC(=O)[C@H](CCC(=O)O)NC(=O)[C@H](CCCCN)NC(=O)[C@@H](NC(=O)[C@H](C)NC(=O)[C@H](CCC(=O)O)NC(=O)CNC(=O)[C@H](CCC(=O)O)NC(=O)[C@H](CC(C)C)NC(=O)[C@H](Cc1ccc(O)cc1)NC(=O)[C@H](CO)NC(=O)[C@H](CO)NC(=O)[C@@H](NC(=O)[C@H](CC(=O)O)NC(=O)[C@H](CO)NC(=O)[C@@H](NC(=O)[C@H](Cc1ccccc1)NC(=O)[C@@H](NC(=O)CNC(=O)[C@H](CCC(=O)O)NC(=O)C(C)(C)NC(=O)[C@@H](N)Cc1c[nH]cn1)[C@@H](C)O)[C@@H](C)O)C(C)C)C(C)C)C(=O)N[C@@H](C)C(=O)N[C@@H](Cc1c[nH]c2ccccc12)C(=O)N[C@@H](CC(C)C)C(=O)N[C@H](C(=O)N[C@@H](CCC(=O)O)C(=O)N[C@@H](CCCCN)C(=O)NC(C)(C)C(=O)N[C@@H](CC(C)C)C(=O)N[C@@H](CO)C(=O)N[C@@H](Cc1ccccc1)C(=O)N[C@@H](CC(C)C)C(N)=O)C(C)C [Compound 88] (H-H[Aib]EGTFTSDVSSYLEGEAVKEFIAWLVEK[Aib]LSFL-NH2) | 69
3 | H-HAEGTFTSDVSSYLEGEAVKEFIAWLVEKVKEHLEK-OH [Compound 125, [Glu23,Val25,Glu34,Lys35,Val36,Lys37]-GLP-1-(7-37)-peptidyl-Glu-His-Leu-Glu-Lys] | 111
4 | CC[C@H](C)[C@H](NC(=O)[C@H](Cc1ccccc1)NC(=O)[C@H](CCC(=O)O)NC(=O)[C@H](CCCCN)NC(=O)[C@@H](NC(=O)[C@H](CCCCN)NC(=O)[C@H](CCC(=O)O)NC(=O)CNC(=O)[C@H](CCC(=O)O)NC(=O)[C@H](CC(C)C)NC(=O)[C@H](Cc1ccc(O)cc1)NC(=O)[C@H](CO)NC(=O)[C@H](CO)NC(=O)[C@@H](NC(=O)[C@H](CC(=O)O)NC(=O)[C@H](CO)NC(=O)[C@@H](NC(=O)[C@H](Cc1ccccc1)NC(=O)[C@@H](NC(=O)CNC(=O)[C@H](CCC(=O)O)NC(=O)C(C)(C)NC(=O)[C@@H](N)Cc1c[nH]cn1)[C@@H](C)O)[C@@H](C)O)C(C)C)C(C)C)C(=O)N[C@@H](CCC(=O)O)C(=O)N[C@@H](Cc1c[nH]cn1)C(=O)N[C@@H](CC(C)C)C(=O)N[C@H](C(=O)N[C@@H](CCC(=O)O)C(=O)N[C@@H](CCCCN)C(=O)N[C@@H](Cc1ccccc1)C(=O)N[C@@H](CCCCN)C(=O)N[C@@H](CCC(=O)O)C(=O)N[C@@H](Cc1ccccc1)C(=O)N[C@@H](Cc1ccccc1)C(N)=O)C(C)C [Compound 96, [Aib8,Glu23,Lys24,Val25,Glu30,His31,Glu34,Lys35,Phe36,Lys37]-GLP-1-(7-37)-peptidyl-Glu-Phe-Phe amide] (H-H[Aib]EGTFTSDVSSYLEGEKVKEFIEHLVEKFKEFF-NH2) | 123
5 | CC[C@H](C)[C@H](NC(=O)[C@H](Cc1ccccc1)NC(=O)[C@H](CCC(=O)O)NC(=O)[C@H](CCCCN)NC(=O)[C@H](C)NC(=O)[C@H](C)NC(=O)[C@H](CCC(N)=O)NC(=O)CNC(=O)[C@H](CCC(=O)O)NC(=O)[C@H](CC(C)C)NC(=O)[C@H](Cc1ccc(O)cc1)NC(=O)[C@H](CO)NC(=O)[C@H](CO)NC(=O)[C@@H](NC(=O)[C@H](CC(=O)O)NC(=O)[C@H](CO)NC(=O)[C@@H](NC(=O)[C@H](Cc1ccccc1)NC(=O)[C@@H](NC(=O)CNC(=O)[C@H](CCC(=O)O)NC(=O)[C@H](C)NC(=O)[C@@H](N)Cc1c[nH]cn1)[C@@H](C)O)[C@@H](C)O)C(C)C)C(=O)N[C@@H](C)C(=O)N[C@@H](Cc1c[nH]c2ccccc12)C(=O)N[C@@H](CC(C)C)C(=O)N[C@H](C(=O)N[C@@H](CCCCN)C(=O)NCC(=O)N[C@@H](CCCNC(=N)N)C(=O)NCC(=O)O)C(C)C [GLP-1(7-37), reference compound] | <10
6 | CC[C@H](C)[C@H](NC(=O)[C@H](Cc1ccccc1)NC(=O)[C@H](CCC(=O)O)NC(=O)[C@H](CCCCN)NC(=O)[C@@H](NC(=O)[C@H](CCCCN)NC(=O)[C@H](CCC(=O)O)NC(=O)CNC(=O)[C@H](CCC(=O)O)NC(=O)[C@H](CC(C)C)NC(=O)[C@H](Cc1ccc(O)cc1)NC(=O)[C@H](CO)NC(=O)[C@H](CO)NC(=O)[C@@H](NC(=O)[C@H](CC(=O)O)NC(=O)[C@H](CO)NC(=O)[C@@H](NC(=O)[C@H](Cc1ccccc1)NC(=O)[C@@H](NC(=O)CNC(=O)[C@H](CCC(=O)O)NC(=O)C(C)(C)NC(=O)[C@@H](N)Cc1c[nH]cn1)[C@@H](C)O)[C@@H](C)O)C(C)C)C(C)C)C(=O)N[C@@H](C)C(=O)N[C@@H](Cc1c[nH]c2ccccc12)C(=O)N[C@@H](CC(C)C)C(=O)N[C@H](C(=O)N[C@@H](CCC(=O)O)C(=O)N[C@@H](CCCCN)C(=O)NC(C)(C)C(=O)N[C@@H](CCCCN)C(=O)N[C@@H](CCC(=O)O)C(=O)N[C@@H](Cc1ccccc1)C(=O)N[C@@H](CC(C)C)C(N)=O)C(C)C [Compound 60, [Aib8,Glu23,Lys24,Val25,Glu34,Lys35,Aib36,Lys37]-GLP-1-(7-37)-peptidyl-Glu-Phe-Leu amide] (H-H[Aib]EGTFTSDVSSYLEGEKVKEFIAWLVEK[Aib]KEFL-NH2) | 111
7 | CC[C@H](C)[C@H](NC(=O)[C@H](Cc1ccccc1)NC(=O)[C@H](CCC(=O)O)NC(=O)[C@H](CCCCN)NC(=O)[C@@H](NC(=O)[C@H](C)NC(=O)[C@H](Cc1c[nH]c2ccccc12)NC(=O)CNC(=O)[C@H](CCC(=O)O)NC(=O)[C@H](CC(C)C)NC(=O)[C@H](Cc1ccc(O)cc1)NC(=O)[C@H](CO)NC(=O)[C@H](CO)NC(=O)[C@@H](NC(=O)[C@H](CC(=O)O)NC(=O)[C@H](CO)NC(=O)[C@@H](NC(=O)[C@H](Cc1ccccc1)NC(=O)[C@@H](NC(=O)CNC(=O)[C@H](CCC(=O)O)NC(=O)C(C)(C)NC(=O)[C@@H](N)Cc1c[nH]cn1)[C@@H](C)O)[C@@H](C)O)C(C)C)C(C)C)C(=O)N[C@@H](C)C(=O)N[C@@H](Cc1c[nH]c2ccccc12)C(=O)N[C@@H](CC(C)C)C(=O)N[C@H](C(=O)N[C@@H](CCC(=O)O)C(=O)N[C@@H](CCCCN)C(=O)NC(C)(C)C(=O)N[C@@H](CCCCN)C(=O)N[C@@H](CCC(=O)O)C(=O)N[C@@H](Cc1ccccc1)C(=O)N[C@@H](CC(C)C)C(N)=O)C(C)C [Compound 21, [Aib8,Trp23,Val25,Glu34,Lys35,Aib36,Lys37]-GLP-1-(7-37)-peptidyl-Glu-Phe-Leu amide] (H-H[Aib]EGTFTSDVSSYLEGWAVKEFIAWLVEK[Aib]KEFL-NH2) | 70
8 | CC[C@H](C)[C@H](NC(=O)[C@H](Cc1ccccc1)NC(=O)[C@H](CCC(=O)O)NC(=O)[C@H](CCCCN)NC(=O)[C@@H](NC(=O)[C@H](C)NC(=O)[C@H](CCC(=O)O)NC(=O)CNC(=O)[C@H](CCC(=O)O)NC(=O)[C@H](CC(C)C)NC(=O)[C@H](Cc1ccc(O)cc1)NC(=O)[C@H](CO)NC(=O)[C@H](CO)NC(=O)[C@@H](NC(=O)[C@H](CC(=O)O)NC(=O)[C@H](CO)NC(=O)[C@@H](NC(=O)[C@H](Cc1ccccc1)NC(=O)[C@@H](NC(=O)CNC(=O)[C@H](CCC(=O)O)NC(=O)C(C)(C)NC(=O)[C@@H](N)Cc1c[nH]cn1)[C@@H](C)O)[C@@H](C)O)C(C)C)C(C)C)C(=O)N[C@@H](C)C(=O)N[C@@H](Cc1c[nH]c2ccccc12)C(=O)N[C@@H](CC(C)C)C(=O)N[C@H](C(=O)N[C@@H](CCC(=O)O)C(=O)N[C@@H](CCCCN)C(=O)NC(C)(C)C(=O)N[C@@H](CCCCN)C(=O)N[C@@H](CCC(=O)O)C(=O)N[C@@H](Cc1ccccc1)C(=O)N[C@@H](CC(C)C)C(=O)N[C@@H](CCC(=O)O)C(=O)N[C@@H](CCCCN)C(=O)N[C@H](C(=O)O)C(C)C)C(C)C [Compound 98, [Aib8,Glu23,Val25,Glu34,Lys35,Aib36,Lys37]-GLP-1-(7-37)-peptidyl-Glu-Phe-Leu-Glu-Lys-Val] | 132
9 | CC[C@H](C)[C@H](NC(=O)[C@H](Cc1ccccc1)NC(=O)[C@H](CCC(N)=O)NC(=O)[C@H](CCCCN)NC(=O)[C@@H](NC(=O)[C@H](C)NC(=O)[C@H](CCC(N)=O)NC(=O)CNC(=O)[C@H](CCC(=O)O)NC(=O)[C@H](CC(C)C)NC(=O)[C@H](Cc1ccc(O)cc1)NC(=O)[C@H](CO)NC(=O)[C@H](CO)NC(=O)[C@@H](NC(=O)[C@H](CC(=O)O)NC(=O)[C@H](CO)NC(=O)[C@@H](NC(=O)[C@H](Cc1ccccc1)NC(=O)[C@@H](NC(=O)CNC(=O)[C@H](CCC(=O)O)NC(=O)C(C)(C)NC(=O)[C@@H](N)Cc1c[nH]cn1)[C@@H](C)O)[C@@H](C)O)C(C)C)C(C)C)C(=O)N[C@@H](C)C(=O)N[C@@H](Cc1c[nH]c2ccccc12)C(=O)N[C@@H](CC(C)C)C(=O)N[C@H](C(=O)N[C@@H](CCC(=O)O)C(=O)N[C@@H](CCCCN)C(=O)NC(C)(C)C(=O)N[C@@H](C)C(=O)N[C@@H](CCC(=O)O)C(=O)N[C@@H](Cc1ccccc1)C(=O)N[C@@H](CC(C)C)C(N)=O)C(C)C [Compound 72] (H-H[Aib]EGTFTSDVSSYLEGQAVKQFIAWLVEK[Aib]AEFL-NH2) | 78
10 | Ac-DWFKAFYDKVAEKFKEAF-NH2 (N-terminus and C-terminus assumed) [Compound L-4F, reference compound] | 108

Same assay, conditions: read-out: 4 h Cholesterol Efflux EC50; RAW 264.7, 4 hrs incubation, 0.1% human serum albumin, ABCA1-mediated efflux (CPT-cAMP induced minus non-induced)

Row | Compound | EC50 [nM]
11 | HAQGTFTSDYSKYLDSKAAREFVQWLLEKVKEFL-NH2 [Compound 68] | 270
12 | CC[C@H](C)[C@H](NC(=O)[C@H](Cc1ccccc1)NC(=O)[C@H](CCC(=O)O)NC(=O)[C@H](CCCCN)NC(=O)[C@@H](NC(=O)[C@H](C)NC(=O)[C@H](CCC(=O)O)NC(=O)CNC(=O)[C@H](CCC(=O)O)NC(=O)[C@H](CC(C)C)NC(=O)[C@H](Cc1ccc(O)cc1)NC(=O)[C@H](CO)NC(=O)[C@H](CO)NC(=O)[C@@H](NC(=O)[C@H](CC(=O)O)NC(=O)[C@H](CO)NC(=O)[C@@H](NC(=O)[C@H](Cc1ccccc1)NC(=O)[C@@H](NC(=O)CNC(=O)[C@H](CCC(=O)O)NC(=O)C(C)(C)NC(=O)[C@@H](N)Cc1c[nH]cn1)[C@@H](C)O)[C@@H](C)O)C(C)C)C(C)C)C(=O)N[C@@H](C)C(=O)N[C@@H](Cc1c[nH]c2ccccc12)C(=O)N[C@@H](CC(C)C)C(=O)N[C@H](C(=O)N[C@@H](CCC(=O)O)C(=O)N[C@@H](CCCCN)C(=O)NC(C)(C)C(=O)N[C@@H](CCCCN)C(=O)N[C@@H](CCC(=O)O)C(=O)N[C@@H](Cc1ccccc1)C(=O)N[C@@H](CC(C)C)C(=O)N[C@@H](CCC(=O)O)C(=O)N[C@@H](CCCCN)C(=O)N[C@H](C(=O)O)C(C)C)C(C)C [Compound 98, [Aib8,Glu23,Val25,Glu34,Lys35,Aib36,Lys37]-GLP-1-(7-37)-peptidyl-Glu-Phe-Leu-Glu-Lys-Val] | 430

Source: patent publication US20150344540A1, “NOVEL GLP-1 RECEPTOR AGONISTS WITH CHOLESTEROL EFFLUX ACTIVITY” (NOVO NORDISK A/S, priority 2012, published 2015)
